Data taken from patent US5952298A, “Cryptophycins” (priority 1995, dated 1999).
Like-named read-outs stand apart in the source and are kept apart here.

Experiments:
[1] = test system: LoVo (human colon carcinoma); test: Cytotoxicity against LoVo cell line; format: cell-based
[2] = test system: SKOV3 (human ovarian carcinoma); test: Cytotoxicity against SKOV3 cell line (Table 2); format: cell-based
[3] = test system: murine leukemia (L1210 or P388), murine solid tumor, human solid tumor and low malignancy fibroblast (LML) cells
[4] = test system: pancreatic ductal adenocarcinoma #03 (Panc 03, P03); conditions: SC P03
[5] = test system: KB (human nasopharyngeal carcinoma); test: Cytotoxicity against KB cell line; format: cell-based
[6] = test system: colon adenocarcinoma #38 (Colon 38, C38); conditions: for % Body Wt. Loss at Nadir / Cures / T/C: SC C38; for Log Kill: mouse, in vivo
[7] = test system: colon adenocarcinoma #51 (Colon 51); test: In vivo activity, SC Colon 51 tumor; conditions: Exp 1900, 9 IV inj., 67.5 mg/kg TD
[8] = test system: Mam 16/C (taxol-sensitive mammary #16/C); test: In vivo activity, SC Mam 16/C tumor; conditions: Exp 1885, 7 IV inj., 21.3 mg/kg TD
[9] = test system: murine and human tumors implanted in mice
Description: Gross log kill is defmed as T-C/3.2 Td where T is the median time in days for the tumors of the treated group to reach 750 mg, C is the median time in days for the tumors of the control group to reach 750 mg, and Td is the tumor volume doubling time. […] An activity rating of +++ to ++++, which is indicative of clinical activity, is needed to effect partial or complete regression of 100-300 mg size masses of most transplanted solid tumors of mice.

[10] = Exp 1843, 4 IV inj., 28/5 mg/kg TD
[11] = Exp 1769, 15 IV inj., 45 mg/kg TD
[12] = Exp 1887B, 6 IV inj., 30 mg/kg TD
[13] = Exp 1825, 11 IV inj., 106 mg/kg TD
[14] = Exp 1878, 9 IV inj., 82 mg/kg TD
[15] = Exp 1813, 9 IV inj., 27 mg/kg TD
[16] = Exp 1843, 7 IV inj., 23 mg/kg TD

COc1ccc(C[C@H]2NC(=O)/C=C/C[C@@H]([C@H](C)[C@H]3O[C@@H]3c3ccccc3)OC(=O)[C@H](CC(C)C)OC(=O)[C@H](C)CNC2=O)cc1 [Cryptophycin 2]
LoVo IC50 ([1]; Table 1): 0.0002 ng/mL
LoVo IC50 ([1]; Table 2): 0.021 ng/mL
SKOV3 IC50 [2]: 0.18 ng/mL
Differential in Zone Units, Corbett Assay ([3]; 25 μg/disk): > 400 zone units
Type of Cytotoxicity, Corbett Assay ([3]; 25 μg/disk): E/T

COc1ccc(C[C@H]2NC(=O)/C=C/C[C@@H]([C@H](C)/C=C/c3ccccc3)OC(=O)[C@H](CC(C)C)OC(=O)[C@H](C)CNC2=O)cc1Cl [Cryptophycin 3]
LoVo IC50 ([1]; Table 1): 0.5 ng/mL
LoVo IC50 ([1]; Table 2): 0.6 ng/mL
SKOV3 IC50 [2]: 2.8 ng/mL
% Body Wt. Loss at Nadir [4, 10]: -9%
Cures [4, 10]: 0/5
Log Kill [4, 10]: < 1
T/C [4, 10]: 54%
Differential in Zone Units, Corbett Assay ([3]; 25 μg/disk): > 400 zone units
Type of Cytotoxicity, Corbett Assay ([3]; 25 μg/disk): E/T
KB IC50 ([5]; Table 1): 0.3 ng/mL

COc1ccc(C[C@H]2NC(=O)/C=C/C[C@@H]([C@H](C)/C=C/c3ccccc3)OC(=O)[C@H](CC(C)C)OC(=O)[C@H](C)CNC2=O)cc1 [Cryptophycin 4]
LoVo IC50 ([1]; Table 2): 2.5 ng/mL
SKOV3 IC50 [2]: 21 ng/mL
Differential in Zone Units, Corbett Assay ([3]; 20 μg/disk): > 400 zone units
Type of Cytotoxicity, Corbett Assay ([3]; 20 μg/disk): E/T
KB IC50 ([5]; Table 1): 1.3 ng/mL

COC(=O)[C@H](C)CNC(=O)[C@@H](Cc1ccc(OC)c(Cl)c1)NC(=O)/C=C/C[C@H](OC(=O)[C@@H](O)CC(C)C)[C@H](C)[C@H]1O[C@@H]1c1ccccc1 [Cryptophycin 5]
SKOV3 IC50 [2]: 7.4 ng/mL
KB IC50 ([5]; Table 1): 0.02 ng/mL
KB IC50 ([5]; Table 2): 12 ng/mL

COc1ccc(C[C@@H](NC(=O)/C=C/C[C@@H]2O[C@@H](c3ccccc3)[C@H](O)[C@H]2C)C(=O)O)cc1Cl [Cryptophycin 7]
LoVo IC50 ([1]; Table 1): ≥ 480 ng/mL
KB IC50 ([5]; Table 1): ≥ 750 ng/mL

COc1ccc(C[C@H]2NC(=O)/C=C/C[C@@H]([C@H](C)[C@@H](O)[C@@H](Cl)c3ccccc3)OC(=O)[C@H](CC(C)C)OC(=O)[C@H](C)CNC2=O)cc1Cl [Cryptophycin 8]
LoVo IC50 ([1]; Table 1): 0.01 ng/mL
LoVo IC50 ([1]; Table 2): 0.0022 ng/mL
SKOV3 IC50 [2]: 0.15 ng/mL
% Body Wt. Loss at Nadir [6, 11]: -2%
Cures [6, 11]: 0/5
T/C [6, 11]: > 100%
% Body Wt. Loss at Nadir [6, 12]: -2%
Cures [6, 12]: 1/5
T/C [6, 12]: 0%
Log Kill ([6]; 30 mg/kg): 2.8
Log Kill ([6]; 45 mg/kg): None
% Body Wt. Loss at Nadir [7]: -1%
Cures [7]: 0/5
Log Kill [7]: 1.8
T/C [7]: 7%
% Body Wt. Loss at Nadir [4, 13]: -6%
Cures [4, 13]: 0/5
Log Kill [4, 13]: 4.6
T/C [4, 13]: 4%
% Body Wt. Loss at Nadir [8]: -4.5%
Cures [8]: 0/5
Log Kill [8]: 2.5
T/C [8]: 6%
cures (in words) [9]: some cures
gross log kill activity rating [9]: +++ to ++++
in vivo activity (in words) [9]: active against a broad spectrum of tumors implanted in mice
cause of lethal toxicity observed during testing ([9]; mice): leucopenia
tumor burden T/C (mean tumor burden in treated animals/mean tumor burden untreated animals) ([9]; text summary over the tumors named in the sentence): < 10%
Differential in Zone Units, Corbett Assay ([3]; 30 μg/disk): > 500 zone units
Type of Cytotoxicity, Corbett Assay ([3]; 30 μg/disk): E/T
KB IC50 ([5]; Table 1): 0.0002 ng/mL
KB IC50 ([5]; Table 2): 0.01 ng/mL

COc1ccc(C[C@H]2NC(=O)/C=C/C[C@@H]([C@H](C)[C@@H](O)[C@@H](OC)c3ccccc3)OC(=O)[C@H](CC(C)C)OC(=O)[C@H](C)CNC2=O)cc1Cl [Cryptophycin 9]
KB IC50 ([5]; Table 1): 15 ng/mL

COc1ccc(C[C@@H](NC(=O)/C=C/C[C@@H]2O[C@@H](c3ccccc3)[C@H](O)[C@H]2C)C(=O)NC[C@@H](C)C(=O)O)cc1Cl [Cryptophycin 12]
LoVo IC50 ([1]; Table 1): ≥ 100 ng/mL
KB IC50 ([5]; Table 1): ≥ 100 ng/mL
KB IC50 ([5]; Table 2): 18 ng/mL

COc1ccc(C[C@@H](NC(=O)/C=C/C[C@H](O)[C@H](C)/C=C/c2ccccc2)C(=O)NC[C@@H](C)C(=O)O)cc1Cl [Cryptophycin 14]
KB IC50 ([5]; Table 1): 1.8 ng/mL

CC(C)C[C@@H]1OC(=O)[C@H](C)CNC(=O)[C@@H](Cc2ccc(O)c(Cl)c2)NC(=O)/C=C/C[C@@H]([C@H](C)[C@H]2O[C@@H]2c2ccccc2)OC1=O [Cryptophycin 16]
SKOV3 IC50 [2]: 0.64 ng/mL
% Body Wt. Loss at Nadir [4, 14]: -1%
Cures [4, 14]: 0/5
Log Kill [4, 14]: None
T/C [4, 14]: 89%
KB IC50 ([5]; Table 2): 0.08 ng/mL

CC(C)C[C@@H]1OC(=O)[C@H](C)CNC(=O)[C@@H](Cc2ccc(O)c(Cl)c2)NC(=O)/C=C/C[C@@H]([C@H](C)/C=C/c2ccccc2)OC1=O [Cryptophycin 17]
LoVo IC50 ([1]; Table 2): 5.9 ng/mL
SKOV3 IC50 [2]: 11 ng/mL
KB IC50 ([5]; Table 2): 4.7 ng/mL

CC[C@H](C)[C@@H]1OC(=O)[C@H](C)CNC(=O)[C@@H](Cc2ccc(OC)c(Cl)c2)NC(=O)/C=C/C[C@@H]([C@H](C)/C=C/c2ccccc2)OC1=O [Cryptophycin 18]
LoVo IC50 ([1]; Table 2): 4.5 ng/mL
SKOV3 IC50 [2]: 23 ng/mL

COc1ccc(C[C@H]2NC(=O)/C=C/C[C@@H]([C@H](C)/C=C/c3ccccc3)OC(=O)[C@H](C(C)C)OC(=O)[C@H](C)CNC2=O)cc1Cl [Cryptophycin 19]
SKOV3 IC50 [2]: 41 ng/mL
KB IC50 ([5]; Table 2): 9.8 ng/mL

COc1ccc(C[C@H]2NC(=O)/C=C/C[C@@H]([C@H](C)[C@H]3O[C@@H]3c3ccccc3)OC(=O)[C@H](CC(C)C)OC(=O)CCNC2=O)cc1Cl [Cryptophycin 21]
LoVo IC50 ([1]; Table 2): 0.0003 ng/mL
SKOV3 IC50 [2]: 0.029 ng/mL
% Body Wt. Loss at Nadir [4, 15]: -11%
Cures [4, 15]: 0/5
Log Kill [4, 15]: None
T/C [4, 15]: 61%
dead (animals) [4, 15]: 1/5

COc1ccc(C[C@H]2NC(=O)/C=C/C[C@@H]([C@H](C)[C@H]3O[C@@H]3c3ccccc3)OC(=O)[C@H](CC(C)C)OC(=O)CCNC2=O)cc1 [Cryptophycin 24]
LoVo IC50 ([1]; Table 2): 0.095 ng/mL
SKOV3 IC50 [2]: 0.3 ng/mL
KB IC50 ([5]; Table 2): 0.12 ng/mL

COc1ccc(C[C@H]2NC(=O)C[C@@H](C[C@H](O)[C@H](C)/C=C/c3ccccc3)OC(=O)[C@H](CC(C)C)OC(=O)[C@H](C)CNC2=O)cc1Cl [Cryptophycin 26]
LoVo IC50 ([1]; Table 2): 9.8 ng/mL
SKOV3 IC50 [2]: 95 ng/mL
KB IC50 ([5]; Table 2): 19 ng/mL

COc1ccc(C[C@H]2NC(=O)/C=C/C[C@@H](C/C=C/c3ccccc3)OC(=O)[C@H](CC(C)C)OC(=O)[C@H](C)CNC2=O)cc1Cl [Cryptophycin 28]
LoVo IC50 ([1]; Table 2): 0.75 ng/mL
SKOV3 IC50 [2]: 6.1 ng/mL
KB IC50 ([5]; Table 2): 1.5 ng/mL

COc1ccc(C[C@H]2NC(=O)/C=C/C[C@@H]([C@H](C)/C=C/c3ccccc3)OC(=O)[C@H](CC(C)C)OC(=O)CCNC2=O)cc1Cl [Cryptophycin 29]
LoVo IC50 ([1]; Table 2): 0.49 ng/mL
SKOV3 IC50 [2]: 3.4 ng/mL

COc1ccc(C[C@H]2NC(=O)C[C@H](O)C[C@@H]([C@H](C)/C=C/c3ccccc3)OC(=O)[C@H](CC(C)C)OC(=O)[C@H](C)CNC2=O)cc1Cl [Cryptophycin 30]
KB IC50 ([5]; Table 2): 11 ng/mL

COc1c(Cl)cc(C[C@H]2NC(=O)/C=C/C[C@@H]([C@H](C)[C@H]3O[C@@H]3c3ccccc3)OC(=O)[C@H](CC(C)C)OC(=O)[C@H](C)CNC2=O)cc1Cl [Cryptophycin 31]
LoVo IC50 ([1]; Table 2): 0.062 ng/mL
SKOV3 IC50 [2]: 1.9 ng/mL
KB IC50 ([5]; Table 2): 0.53 ng/mL

COc1ccc(CC2NC(=O)CCCC(C(C)C3OC3c3ccccc3)OC(=O)C(CC(C)C)OC(=O)C(C)CNC2=O)cc1Cl (stereo not shown) [Cryptophycin 35]
% Body Wt. Loss at Nadir [4, 16]: -2%
Cures [4, 16]: 0/5
Log Kill [4, 16]: 1.3
T/C [4, 16]: 11%
in vivo activity (in words) [9]: Good in vivo activity

COc1ccc(C[C@H]2NC(=O)CCC[C@@H]([C@H](C)[C@H]3O[C@@H]3c3ccccc3)OC(=O)[C@H](CC(C)C)OC(=O)[C@H](C)CNC2=O)cc1Cl [Cryptophycin 35]
SKOV3 IC50 [2]: 0.092 ng/mL
KB IC50 ([5]; Table 2): 0.055 ng/mL

COc1ccc(C[C@H]2NC(=O)/C=C/C[C@@H](C[C@H]3O[C@@H]3c3ccccc3)OC(=O)[C@H](CC(C)C)OC(=O)[C@H](C)CNC2=O)cc1Cl [Cryptophycin 40]
LoVo IC50 ([1]; Table 2): 1.0 ng/mL
KB IC50 ([5]; Table 2): 9.0 ng/mL

CC[C@H](C)[C@@H]1OC(=O)[C@H](C)CNC(=O)[C@@H](Cc2ccc(OC)c(Cl)c2)NC(=O)/C=C/C[C@@H]([C@H](C)[C@H]2O[C@@H]2c2ccccc2)OC1=O [Cryptophycin 54]
LoVo IC50 ([1]; Table 2): 2.2 ng/mL
SKOV3 IC50 [2]: 2.2 ng/mL
KB IC50 ([5]; Table 2): 0.80 ng/mL
